experiment: Concentration required to inhibit human Cytosolic phospholipase A2

Row | SMILES | IC50 [µM]
1 | O=C1N=C(O)SC1=Cc1ccc(C(=O)NC[C@@H]2C[C@@H](OCc3ccccc3-c3ccccc3)CN2C(=O)c2ccccc2C(=O)c2ccccc2)cc1 [N-[(2S,4R)-1-(2-Benzoyl-benzoyl)-4-(biphenyl-2-ylmethoxy)-pyrrolidin-2-ylmethyl]-4-[2,4-dioxo-thiazolidin-(5Z)-ylidenemethyl]-benzamide] | 0.165
2 | O=C1N=C(O)SC1=Cc1ccc(C(=O)NC[C@@H]2C[C@@H](S(c3ccccc3)(c3ccccc3)c3ccccc3)CN2C(=O)c2ccccc2C(=O)c2ccc(F)cc2F)cc1 [N-[(2S,4R)-1-[2-(2,4-Difluoro-benzoyl)-benzoyl]-4-(triphenyl-lambda*4*-sulfanyl)-pyrrolidin-2-ylmethyl]-4-[2,4-dioxo-thiazolidin-(5Z)-ylidenemethyl]-benzamide] | 0.0042
3 | CCCCC/C=C\C/C=C\C/C=C\C/C=C\CCCC(=O)C(F)(F)F [Arachidonyltrifluoromethane] | 0.42

Reference: BindingDB's records for doi:10.1016/s0960-894x(01)00003-8 (Shionogi, 2001)
